Where a SMILES comes first, the peptide text is derived from it. Bridges are numbered along the chain shown (N, C = ends). [ ]: non-standard residue; d: D form. d(aThr) = C[C@@H](O)[C@@H](N)C(=O)O

Chain of Somatostatin receptor type 2 (P30875 whole entry): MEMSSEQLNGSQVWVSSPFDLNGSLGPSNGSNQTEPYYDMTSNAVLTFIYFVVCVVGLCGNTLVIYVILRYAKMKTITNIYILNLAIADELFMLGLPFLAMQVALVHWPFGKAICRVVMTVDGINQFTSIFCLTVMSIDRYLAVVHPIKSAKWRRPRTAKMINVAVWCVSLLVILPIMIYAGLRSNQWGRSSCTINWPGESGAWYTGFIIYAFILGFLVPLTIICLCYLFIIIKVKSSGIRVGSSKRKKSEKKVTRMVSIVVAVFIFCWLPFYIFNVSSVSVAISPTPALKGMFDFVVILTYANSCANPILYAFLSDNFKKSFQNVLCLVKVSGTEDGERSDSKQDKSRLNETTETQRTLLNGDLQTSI

The first experiment concerns the target Somatostatin receptor type 2 (Mus musculus, UniProt P30875). Description: Compound was tested for the inhibition of mSSTR2b.
The IC50 is the midpoint of a concentration-inhibition curve. Read a low IC50 as greater potency. `C[C@@H](O)[C@H](NC(=O)[C@@H]1CSSC[C@H](NC(=O)[C@H](N)Cc2ccccc2)C(=O)N[C@@H](Cc2ccccc2)C(=O)N[C@H](Cc2c[nH]c3ccccc23)C(=O)N[C@@H](CCCCN)C(=O)N[C@@H]([C@@H](C)O)C(=O)N1)C(=O)O` displayed an IC50 of 0.28 nM.
Same read-out and setting: the value for `C[C@@H](O)[C@H](NC(=O)[C@@H]1CSC[C@H](NC(=O)[C@H](N)Cc2ccccc2)C(=O)N[C@@H](Cc2ccccc2)C(=O)N[C@H](Cc2c[nH]c3ccccc23)C(=O)N[C@@H](CCCCN)C(=O)N[C@@H]([C@@H](C)O)C(=O)N1)C(N)=O` was 15.6 nM.

A further experiment deals with T1, Somatostatin receptor type 5 (Rattus norvegicus, UniProt P30938).
T1 sequence (P30938 whole entry): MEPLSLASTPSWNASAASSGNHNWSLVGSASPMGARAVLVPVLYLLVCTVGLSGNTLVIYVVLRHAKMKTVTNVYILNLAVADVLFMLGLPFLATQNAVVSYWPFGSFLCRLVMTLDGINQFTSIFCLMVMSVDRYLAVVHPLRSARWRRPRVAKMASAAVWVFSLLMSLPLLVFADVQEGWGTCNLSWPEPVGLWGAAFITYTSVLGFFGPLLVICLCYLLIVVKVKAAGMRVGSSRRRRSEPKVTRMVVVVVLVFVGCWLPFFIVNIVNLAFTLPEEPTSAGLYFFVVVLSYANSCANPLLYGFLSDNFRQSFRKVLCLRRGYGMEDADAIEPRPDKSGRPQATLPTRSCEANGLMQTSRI
In words: Compound was tested for the inhibition of rSSTR5.
In turn, `C[C@@H](O)[C@@H](NC(=O)[C@H]1CSSC[C@H](NC(=O)[C@@H](N)Cc2ccccc2)C(=O)N[C@@H](Cc2ccccc2)C(=O)N[C@H](Cc2c[nH]c3ccccc23)C(=O)N[C@@H](CCCCN)C(=O)N[C@H]([C@@H](C)O)C(=O)N1)C(=O)O` showed an IC50 of 1.04 nM.
On to `C[C@@H](O)[C@H](NC(=O)[C@@H]1CSC[C@@H](NC(=O)[C@H](N)Cc2ccccc2)C(=O)N[C@H](Cc2ccccc2)C(=O)N[C@@H](Cc2c[nH]c3ccccc23)C(=O)N[C@H](CCCCN)C(=O)N[C@@H]([C@@H](C)O)C(=O)N1)C(N)=O`, for which half-maximal inhibition (IC50) was put at 5.5 nM.
On the same count and under the same terms, the figure for `C[C@@H](O)[C@@H]1NC(=O)[C@@H](CCCCN)NC(=O)[C@H](Cc2c[nH]c3ccccc23)NC(=O)[C@@H](Cc2ccccc2)NC(=O)[C@H](NC(=O)[C@H](N)Cc2ccccc2)CSC[C@@H](C(=O)O)NC1=O` is 500 nM.
Still for that read-out and setting: the figure for `C[C@@H](O)[C@H]1NC(=O)[C@H](CCCCN)NC(=O)[C@@H](Cc2c[nH]c3ccccc23)NC(=O)[C@H](Cc2ccccc2)NC(=O)[C@@H](NC(=O)[C@@H](N)Cc2ccccc2)CSSC[C@H](C(=O)O)NC1=O` (H-FCF[dW]K[d(aThr)][dC]-OH; disulfide 2-7) is 10.6 nM.

(Values after ChEMBL document CHEMBL1130422, “A refined model for the somatostatin pharmacophore: conformational analysis of lanthionine-sandostatin analogs” (J Med Chem, 1997).)
